Where a name gives a salt, the structure may show the parent alone.
Molecular target: FLT3 kinase (FLT3 kinase domain alone, Upstate) (Homo sapiens (Human), UniProt P36888)
Test: FLT3 kinase assay ([33P] incorporation into substrate)
Type: biochemical
Settings: 100 μM ATP, 30° C., 30 minutes; read-out: IC50 against FLT3
Procedure: Inhibition of FLT3 kinase activity by compounds disclosed herein was quantified by measuring the amount of [^33P] incorporated into the substrate in the presence of a test compound. Briefly, a reaction mixture of 25 μL final volume containing 5 ng of FLT3 kinase (FLT3 kinase domain alone, Upstate), 5 μg of the substrate [(Poly (Glu-Tyr, 4:1), Sigma], kinase reaction buffer (20 mM MOPS pH 7.0, 1 mM EDTA, 5% glycerol, 0.01% Brij-35, 0.1% β-mercaptoethanol, 1 mg/mL BSA, 100 μM ATP, 0.1 μCi per well [^33P]-γ-ATP (2,500-3,000 Ci/mmol)), and a test compound (diluted from 9 μM to the desired final concentration by 4% DMSO) or DMSO (as the control) was incubated at 30° C. for 30 minutes. The reaction was stopped by adding 5 μL of 3% phosphoric acid solution. The resultant solution (30 μL) was later harvested by a UniFilter Plate GF/B (PerkinElmer) followed by adding 30 μL of the scintillation cocktail (MicroScint 20, PerkinElmer) to the well. The radioactivity retained on the filter membrane was measured by a luminescence counter (PerkinElmer). The results were analyzed by using linear regression software (GraphPad Prism 4; GraphPad Software Inc.).

Chain of FLT3 kinase (FLT3 kinase domain alone, Upstate) (P36888 610-943): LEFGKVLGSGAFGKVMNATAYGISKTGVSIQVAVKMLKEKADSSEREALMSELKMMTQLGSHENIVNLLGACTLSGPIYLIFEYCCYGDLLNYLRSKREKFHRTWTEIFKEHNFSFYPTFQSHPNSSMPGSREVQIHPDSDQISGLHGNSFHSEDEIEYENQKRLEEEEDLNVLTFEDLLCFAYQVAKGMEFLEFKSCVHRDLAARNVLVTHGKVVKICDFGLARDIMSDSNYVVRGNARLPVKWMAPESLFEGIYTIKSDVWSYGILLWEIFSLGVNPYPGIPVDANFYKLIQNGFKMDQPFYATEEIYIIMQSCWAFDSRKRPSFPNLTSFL

| Compound | IC50 [nM] |
| --- | --- |
| c1cc(-c2n[nH]c3c2Cc2sccc2-3)co1 [Example-17, 6-Furan-3-yl-4,7-dihydro-1-thia-4,5-diaza-cyclopenta[a]pentalene] | 500 to 1000 |
| FC(F)(F)c1ccc(Nc2n[nH]c3c2Cc2sccc2-3)cc1 [Example-35, (4,7-Dihydro-1-thia-4,5-diaza-cyclopenta[a]pentalen-6-yl)-(4-trifluoromethyl-phenyl)-amine] | 100 to 499 |
| Brc1ccc(-c2n[nH]c3c2Cc2sc(Br)cc2-3)cc1 [Example-33, 2-Bromo-6-(4-bromo-phenyl)-4,7-dihydro-1-thia-4,5-diaza-cyclopenta[a]pentalene] | < 100 |
| Nc1ccc(Nc2ccc(-c3n[nH]c4c3Cc3sccc3-4)cc2)cc1 [Example-13, N-[4-(4,7-Dihydro-1-thia-4,5-diaza-cyclopenta[a]pentalen-6-yl)-phenyl]-benzene-1,4-diamine] | 100 to 499 |
| 6-[4-(4-Methyl-piperazin-1-yl)-phenyl]-2-pyridin-3-yl-4,7-dihydro-1-thia-4,5-diaza-cyclopenta[a]pentalene hydrochloride [Example-90] | < 100 |
| N#Cc1ccc(-c2ccc(-c3n[nH]c4c3Cc3sccc3-4)cc2)cc1 [Example-15, 4′-(4,7-Dihydro-1-thia-4,5-diaza-cyclopenta[a]pentalen-6-yl)-biphenyl-4-carbonitrile] | < 100 |
| Clc1ccc(Nc2n[nH]c3c2Cc2sccc2-3)c(Cl)c1 [Example-21, (2,4-Dichloro-phenyl)-(4,7-dihydro-1-thia-4,5-diaza-cyclopenta[a]pentalen-6-yl)-amine] | 500 to 1000 |
| COc1ccc(Nc2n[nH]c3c2Cc2sccc2-3)cc1 [Example-23, (4,7-Dihydro-1-thia-4,5-diaza-cyclopenta[a]pentalen-6-yl)-(4-methoxy-phenyl)-amine] | > 1000 |
| COc1ccc(Nc2ccc(-c3n[nH]c4c3Cc3sccc3-4)cc2)cc1 [Example-8, [4-(4,7-Dihydro-1-thia-4,5-diaza-cyclopenta[a]pentalen-6-yl)-phenyl]-(4-methoxy-phenyl)-amine] | 100 to 499 |
| [O-][n+]1cccc(-c2n[nH]c3c2Cc2sccc2-3)c1 [Example-28, 6-(1-Oxy-pyridin-3-yl)-4,7-dihydro-1-thia-4,5-diaza-cyclopenta[a]pentalene] | > 1000 |
| COc1cccc(Nc2n[nH]c3c2Cc2sccc2-3)c1 [Example-26, (4,7-Dihydro-1-thia-4,5-diaza-cyclopenta[a]pentalen-6-yl)-(3-methoxy-phenyl)-amine] | < 100 |
| Clc1ccccc1Nc1n[nH]c2c1Cc1sccc1-2 [Example-31, (2-Chloro-phenyl)-(4,7-dihydro-1-thia-4,5-diaza-cyclopenta[a]pentalen-6-yl)-amine] | 100 to 499 |
| Clc1cc(Cl)cc(-c2ccc(-c3n[nH]c4c3Cc3sccc3-4)cc2)c1 [Example-18, 6-(3′,5′-Dichloro-biphenyl-4-yl)-4,7-dihydro-1-thia-4,5-diaza-cyclopenta[a]pentalene] | 100 to 499 |
| Brc1cc2c(s1)Cc1c(-c3ccccc3)n[nH]c1-2 [Example-27] | < 100 |
| Brc1ccc(-c2[nH]nc3c2Cc2sccc2-3)cc1 [Example-1, 6-(4-Bromo-phenyl)-5,7-dihydro-1-thia-4,5-diaza-cyclopenta[a]-pentalene] | < 100 |
| COc1ccc(-c2n[nH]c3c2Cc2sccc2-3)c(OC)c1 [Example-4, 6-(2,4-Dimethoxy-phenyl)-4,7-dihydro-1-thia-4,5-diaza-cyclopenta[a]pentalene] | < 100 |
| Brc1cccc(Nc2n[nH]c3c2Cc2sccc2-3)c1 [Example-36, (3-Bromo-phenyl)-(4,7-dihydro-1-thia-4,5-diaza-cyclopenta[a]pentalen-6-yl)-amine] | 100 to 499 |
| 6-(3-Fluoro-phenyl)-4,7-dihydro-1-thia-4,5-diaza-cyclopenta[a]pentalene [Example-38] | 100 to 499 |
| 6-(2-Fluoro-phenyl)-4,7-dihydro-1-thia-4,5-diaza-cyclopenta[a]pentalene [Example-41] | < 100 |
| COc1cc(-c2ccc(-c3n[nH]c4c3Cc3sccc3-4)cc2)ccc1O [Example-9, 4′-(4,7-Dihydro-1-thia-4,5-diaza-cyclopenta[a]pentalen-6-yl)-3-methoxy-biphenyl-4-ol] | < 100 |
| Ic1ccc(Nc2n[nH]c3c2Cc2sccc2-3)cc1 [Example-22, (4,7-Dihydro-1-thia-4,5-diaza-cyclopenta[a]pentalen-6-yl)-(4-iodo-phenyl)-amine] | 100 to 499 |

Other lines, results leading:

| IC50 [nM] | Compound |
| --- | --- |
| > 1000 | Brc1ccccc1-c1n[nH]c2c1Cc1sccc1-2 [Example-44, 6-(2-Bromo-phenyl)-4,7-dihydro-1-thia-4,5-diaza-cyclopenta[a]pentalene] |
| < 100 | COc1ccccc1-c1n[nH]c2c1Cc1sccc1-2 [Example-51, 6-(2-Methoxy-phenyl)-4,7-dihydro-1-thia-4,5-diaza-cyclopenta[a]pentalene] |
| 100 to 499 | Brc1ccc(-c2n[nH]c3c2Cc2sccc2-3)cn1 [Example-64, 6-(6-Bromo-pyridin-3-yl)-4,7-dihydro-1-thia-4,5-diaza-cyclopenta[a]pentalene] |
| < 100 | c1cncc(Nc2ccc(-c3n[nH]c4c3Cc3sccc3-4)cc2)c1 [Example-63, [4-(4,7-Dihydro-1-thia-4,5-diaza-cyclopenta[a]pentalen-6-yl)-phenyl]-pyridin-3-yl-amine] |
| 100 to 499 | Fc1ccc(-c2n[nH]c3c2Cc2sccc2-3)cc1 [Example-40, 6-(4-Fluoro-phenyl)-4,7-dihydro-1-thia-4,5-diaza-cyclopenta[a]pentalene] |
| < 100 | Clc1cccc(-c2n[nH]c3c2Cc2sccc2-3)c1 [Example-39, 6-(3-Chloro-phenyl)-4,7-dihydro-1-thia-4,5-diaza-cyclopenta[a]pentalene] |
| > 1000 | FC(F)(F)Oc1ccccc1Nc1n[nH]c2c1Cc1sccc1-2 [Example-48, (4,7-Dihydro-1-thia-4,5-diaza-cyclopenta[a]pentalen-6-yl)-(2-trifluoromethoxy-phenyl)-amine] |
| 100 to 499 | O=C1c2sccc2-c2[nH]nc(-c3cccc(Cl)c3)c21 [Example-50, 6-(3-Chloro-phenyl)-4H-1-thia-4,5-diaza-cyclopenta[a]pentalen-7-one] |
| < 100 | COc1ccc(-c2n[nH]c3c2Cc2sc(-c4ccc(OC)c(OC)c4)cc2-3)cc1 [Example-74, 2-(3,4-Dimethoxy-phenyl)-6-(4-methoxy-phenyl)-4,7-dihydro-1-thia-4,5-diaza-cyclopenta[a]pentalene] |
| 100 to 499 | COc1ccccc1Nc1n[nH]c2c1Cc1sccc1-2 [Example-45, (4,7-Dihydro-1-thia-4,5-diaza-cyclopenta[a]pentalen-6-yl)-(2-methoxy-phenyl)-amine] |
| 500 to 1000 | O=C1c2sccc2-c2[nH]nc(-c3ccc(Br)nc3)c21 [Example-68, 6-(6-Bromo-pyridin-3-yl)-4H-1-thia-4,5-diaza-cyclopenta[a]pentalen-7-one] |
| < 100 | COc1ccc(-c2n[nH]c3c2Cc2sc(-c4ccccc4)cc2-3)cc1 [Example-65, 6-(4-Methoxy-phenyl)-2-phenyl-4,7-dihydro-1-thia-4,5-diaza-cyclopenta[a]pentalene] |
| 100 to 499 | c1cc2c(s1)Cc1c(-c3ccc(N4CCCC4)cc3)n[nH]c1-2 [Example-84, 6-(4-Pyrrolidin-1-yl-phenyl)-4,7-dihydro-1-thia-4,5-diaza-cyclopenta[a]pentalene] |
| < 100 | COc1ccc(-c2n[nH]c3c2Cc2sc(-c4cccc(N)c4)cc2-3)cc1 [Example-86, 3-[6-(4-Methoxy-phenyl)-4,7-dihydro-1-thia-4,5-diaza-cyclopenta[a]pentalen-2-yl]-phenylamine] |
| < 100 | Nc1ccc(-c2n[nH]c3c2C(=O)c2sccc2-3)cc1 [Example-56, 6-(4-Amino-phenyl)-4H-1-thia-4,5-diaza-cyclopenta[a]pentalen-7-one] |
| < 100 | COc1ccc(-c2n[nH]c3c2C(=O)c2sc(-c4ccc(N)nc4)cc2-3)cc1 [Example-87, 2-(6-Amino-pyridin-3-yl)-6-(4-methoxy-phenyl)-4H-1-thia-4,5-diaza-cyclopenta[a]pentalen-7-one] |
| < 100 | COc1ccc(-c2n[nH]c3c2Cc2sc(-c4cnc(N)nc4)cc2-3)cc1 [Example-79, 5-[6-(4-Methoxy-phenyl)-4,7-dihydro-1-thia-4,5-diaza-cyclopenta[a]pentalen-2-yl]-pyrimidin-2-ylamine] |
| < 100 | Nc1ccc(-c2cc3c(s2)Cc2c(-c4ccc(N5CCOCC5)cc4)n[nH]c2-3)cn1 [Example-88, 5-[6-(4-Morpholin-4-yl-phenyl)-4,7-dihydro-1-thia-4,5-diaza-cyclopenta[a]pentalen-2-yl]-pyridin-2-Ylamine hydrochloride] |
| < 100 | COc1ccc(-c2n[nH]c3c2Cc2sc(-c4ccc(OC)c(F)c4)cc2-3)cc1 [Example-83, 2-(3-Fluoro-4-methoxy-phenyl)-6-(4-methoxy-phenyl)-4,7-dihydro-1-thia-4,5-diaza-cyclopenta[a]pentalene] |
| < 100 | Nc1ccc(-c2n[nH]c3c2Cc2sccc2-3)cn1 [Example-66, 5-(4,7-Dihydro-1-thia-4,5-diaza-cyclopenta[a]pentalen-6-yl)-pyridin-2-ylamine hydrochloride] |
